From patent US20240041042A1, “1-(PYRIDYL)-5-AZINYLPYRAZOLE DERIVATIVES, AND THEIR USE FOR CONTROL OF UNDESIRED PLANT GROWTH” (Bayer Aktiengesellschaft, priority 2020, published 2024)
One block for each compound: values may come before it.

Columns and labels:
Assay type in all cases: in vivo
[1] = system: Alopecurus myosuroides (ALOMY); assay: Pre-emergence herbicidal action against ALOMY; conditions: scored visually after about 3 weeks, 100% = plants have died
Method in brief: (§1)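 Seeds sown in pots and covered with soil; WP or EC formulations sprayed onto the soil surface at 600 l/ha water with 0.5% additive, at 320 g/ha or lower. Greenhouse growth for about 3 weeks, then visual scoring as % effect against untreated controls (100% = plants dead).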

[2] = system: Amaranthus retroflexus (AMARE); assay: Pre-emergence herbicidal action against AMARE; conditions: visual scoring after about 3 weeks vs untreated controls
Method in brief: as §1

[3] = system: Avena fatua (AVEFA); assay: Pre-emergence herbicidal action against AVEFA; conditions: 320 g/ha, visual scoring after about 3 weeks vs untreated controls
Method in brief: as §1

[4] = system: Digitaria sanguinalis (DIGSA); assay: Pre-emergence herbicidal action against DIGSA
Text: Seeds of monocotyledonous and dicotyledonous weed plants and crop plants are placed in plastic or organic planting pots and covered with soil. The compounds of the invention, formulated in the form of wettable powders (WP) or as emulsion concentrates (EC), are then applied to the surface of the covering soil as aqueous suspension or emulsion with addition of 0.5% additive at a water application rate equivalent to 600 l/ha. After the treatment, the pots are placed in a greenhouse and kept under good growth conditions for the trial plants. After about 3 weeks, the effect of the preparations is scored visually in comparison with untreated controls as percentages. For example, 100% activity=the plants have died, 0% activity=like control plants.
Tables A1 to A13 below show the effects of selected compounds of the general formula (I) on various harmful plants and at an application rate corresponding to 320 g/ha or lower, which were obtained by the experimental procedure mentioned above. The appendices “a”, “b” and “c” give differentiation by dosage used with otherwise the same harmful plants tested.

[5] = system: Echinochloa crus-galli (ECHCG); assay: Pre-emergence herbicidal action against ECHCG
Method in brief: as §1

[6] = system: Lolium rigidum (LOLRI); assay: Pre-emergence herbicidal action against LOLRI
Method in brief: as §1

[7] = system: Matricaria inodora (MATIN); assay: Pre-emergence herbicidal action against MATIN
Method in brief: as §1

[8] = system: Pharbitis purpurea (PHBPU); assay: Pre-emergence herbicidal action against PHBPU; conditions: dosage 320 g/ha
Method in brief: as §1

[9] = system: Polygonum convolvulus (POLCO); assay: Pre-emergence herbicidal action against POLCO
Method in brief: as §1

[10] = system: Setaria viridis (SETVI); assay: Pre-emergence herbicidal action against SETVI
Method in brief: as §1

[11] = system: Viola tricolor (VIOTR); assay: Pre-emergence herbicidal action against VIOTR
Method in brief: as §1

[12] = system: Alopecurus myosuroides (ALOMY); assay: Post-emergence herbicidal action against ALOMY; conditions: visual rating about 3 weeks after treatment vs untreated controls (100% = plants have died, 0% = like control plants)
Method in brief: (§2)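 Doses of 320 g/ha or lower, suffixes a, b and c marking different dosages, were applied post-emergence at the one-leaf stage in 600 l/ha water with 0.5% additive. Damage was assessed visually after about 3 weeks in the greenhouse.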

[13] = system: Amaranthus retroflexus (AMARE); assay: Post-emergence herbicidal action against AMARE
Method in brief: as §2

[14] = system: Avena fatua (AVEFA); assay: Post-emergence herbicidal action against AVEFA; conditions: visual rating about 3 weeks after treatment
Method in brief: as §2

[15] = system: Digitaria sanguinalis (DIGSA); assay: Post-emergence herbicidal action against DIGSA; conditions: visual rating about 3 weeks after treatment
Method in brief: as §2

[16] = system: Echinochloa crus-galli (ECHCG); assay: Post-emergence herbicidal action against ECHCG
Method in brief: as §2

[17] = system: Lolium rigidum (LOLRI); assay: Post-emergence herbicidal action against LOLRI
Method in brief: as §2

[18] = system: Pharbitis purpurea (PHBPU); assay: Post-emergence herbicidal action against PHBPU
Method in brief: as §2

[19] = system: Polygonum convolvulus (POLCO); assay: Post-emergence herbicidal action against POLCO
Method in brief: as §2

[20] = system: Setaria viridis (SETVI); assay: Post-emergence herbicidal action against SETVI
Method in brief: as §2

[21] = system: Verconica persica (VERPE); assay: Post-emergence herbicidal action against VERPE
Method in brief: as §2

[22] = system: Viola tricolor (VIOTR); assay: Post-emergence herbicidal action against VIOTR
Method in brief: as §2

[23] = system: Oryza sativa (ORYSA); conditions: crop plant compatibility, 80 g/ha, effect in comparison to untreated controls
Method in brief: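 Foliar application at the one-leaf stage: WP/EC formulation, 0.5% additive, 600 l/ha water. Greenhouse-grown in sandy loam. Endpoint is visual % injury relative to untreated controls at about 3 weeks.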

[24] = system: Verconica persica (VERPE); assay: Pre-emergence herbicidal action against VERPE; conditions: dosage 320 g/ha
Method in brief: as §1

[25] = system: Abutilon theophrasti (ABUTH); assay: Post-emergence herbicidal action against ABUTH; conditions: 80 g/ha, visual rating about 3 weeks after treatment vs untreated controls (100% = plants have died, 0% = like control plants)
Method in brief: as §2

[26] = 80 g/ha, visual scoring after about 3 weeks vs untreated controls

- Post-emergence action against ORYSA in % [23]: 10%
Structure (SMILES): C=C(COC(=O)[C@@H](C)Oc1nn(-c2ccccn2)c(-c2ccc(F)nc2)c1Cl)C(=O)OC [Example I-322]
- Pre-emergence action against ALOMY ([1]; 80 g/ha): 80%
- Pre-emergence action against ALOMY ([1]; 320 g/ha): 100%
- Pre-emergence action against AMARE in % ([2]; 320 g/ha): 100%
- Pre-emergence action against AVEFA in % [3]: 90%
- Pre-emergence action against DIGSA in % [4, 26]: 100%
- Pre-emergence action against DIGSA in % ([4]; dosage 320 g/ha): 100%
- Pre-emergence action against ECHCG in % ([5]; dosage 80 g/ha): 80%
- Pre-emergence action against ECHCG in % ([5]; dosage 320 g/ha): 100%
- Pre-emergence action against LOLRI in % ([6]; dosage 80 g/ha): 90%
- Pre-emergence action against LOLRI in % ([6]; dosage 320 g/ha): 100%
- Pre-emergence action against MATIN in % ([7]; dosage 320 g/ha): 80%
- Pre-emergence action against PHBPU in % [8]: 90%
- Pre-emergence action against POLCO in % ([9]; dosage 80 g/ha): 80%
- Pre-emergence action against POLCO in % ([9]; dosage 320 g/ha): 90%
- Pre-emergence action against SETVI in % ([10]; dosage 80 g/ha): 90%
- Pre-emergence action against SETVI in % ([10]; dosage 320 g/ha): 100%
- Pre-emergence action against VIOTR in % ([11]; 320 g/ha, Viola tricolor): 100%
- Pre-emergence action against VIOTR in % ([11]; dosage 80 g/ha): 80%
- Post-emergence action against ALOMY in % ([12]; 320 g/ha): 80%
- Post-emergence action against AMARE in % ([13]; 80 g/ha, visual rating about 3 weeks after treatment vs untreated controls (100% = plants have died, 0% = like control plants)): 80%
- Post-emergence action against AMARE in % ([13]; 320 g/ha, visual rating about 3 weeks after treatment): 80%
- Post-emergence action against AVEFA in % ([14]; 80 g/ha): 80%
- Post-emergence action against AVEFA in % ([14]; 320 g/ha): 80%
- Post-emergence action against DIGSA in % ([15]; 80 g/ha): 80%
- Post-emergence action against DIGSA in % ([15]; 320 g/ha): 80%
- Post-emergence action against ECHCG in % ([16]; dosage 320 g/ha): 80%
- Post-emergence action against LOLRI in % ([17]; dosage 80 g/ha): 80%
- Post-emergence action against LOLRI in % ([17]; dosage 320 g/ha): 80%
- Post-emergence action against PHBPU in % ([18]; dosage 80 g/ha): 80%
- Post-emergence action against PHBPU in % ([18]; dosage 320 g/ha): 80%
- Post-emergence action against POLCO in % ([19]; dosage 80 g/ha): 80%
- Post-emergence action against POLCO in % ([19]; dosage 320 g/ha): 80%
- Post-emergence action against SETVI in % ([20]; dosage 80 g/ha): 80%
- Post-emergence action against SETVI in % ([20]; dosage 320 g/ha): 80%
- Post-emergence action against VERPE in % ([21]; 320 g/ha, VERPE): 80%
- Post-emergence action against VERPE in % ([21]; dosage 80 g/ha): 80%
- Post-emergence action against VIOTR in % ([22]; 80 g/ha): 80%
- Post-emergence action against VIOTR in % ([22]; 320 g/ha): 80%

Structure (SMILES): CCOC(=O)COc1nn(-c2ncccc2F)c(-c2ccc(F)nc2)c1Cl [Example I-38]
- Pre-emergence action against ALOMY ([1]; 80 g/ha): 100%
- Pre-emergence action against ALOMY ([1]; 320 g/ha): 100%
- Pre-emergence action against AMARE in % ([2]; 80 g/ha): 100%
- Pre-emergence action against AMARE in % ([2]; 320 g/ha): 100%
- Pre-emergence action against AVEFA in % [3]: 100%
- Pre-emergence action against DIGSA in % [4, 26]: 100%
- Pre-emergence action against DIGSA in % ([4]; dosage 320 g/ha): 100%
- Pre-emergence action against ECHCG in % ([5]; dosage 320 g/ha): 100%
- Pre-emergence action against LOLRI in % ([6]; dosage 320 g/ha): 100%
- Pre-emergence action against MATIN in % ([7]; dosage 80 g/ha): 100%
- Pre-emergence action against MATIN in % ([7]; dosage 320 g/ha): 100%
- Pre-emergence action against PHBPU in % [8]: 90%
- Pre-emergence action against POLCO in % ([9]; dosage 80 g/ha): 90%
- Pre-emergence action against POLCO in % ([9]; dosage 320 g/ha): 100%
- Pre-emergence action against SETVI in % ([10]; dosage 80 g/ha): 100%
- Pre-emergence action against SETVI in % ([10]; dosage 320 g/ha): 100%
- Pre-emergence action against VERPE in % [24]: 100%
- Pre-emergence action against VIOTR in % ([11]; 320 g/ha, Viola tricolor): 100%
- Pre-emergence action against VIOTR in % ([11]; dosage 80 g/ha): 100%
- Post-emergence action against ABUTH in % [25]: 80%
- Post-emergence action against ALOMY in % ([12]; 80 g/ha): 100%
- Post-emergence action against DIGSA in % ([15]; 80 g/ha): 90%
- Post-emergence action against ECHCG in % ([16]; dosage 80 g/ha): 90%
- Post-emergence action against PHBPU in % ([18]; dosage 80 g/ha): 90%
- Post-emergence action against POLCO in % ([19]; dosage 80 g/ha): 80%
- Post-emergence action against SETVI in % ([20]; dosage 80 g/ha): 80%
- Post-emergence action against VERPE in % ([21]; dosage 80 g/ha): 80%
- Post-emergence action against VIOTR in % ([22]; 80 g/ha): 80%
